Experimental data: patent publication US20230032934A1, “METHOD OF PRODUCING TUMOR-REACTIVE T CELL COMPOSITION USING MODULATORY AGENTS” (Myst Therapeutics, LLC, priority 2019, published 2023)
Entries after “also recorded” stand apart in the source; their conditions may differ. Where a SMILES comes first, the peptide text is derived from it. The star is where a group is joined. Cbz = O=C(OCc1ccccc1)*; CH2F = FC*

How the values were obtained:
[1] = system: cells processed from melanoma tumor fragments; assay: Anti-CD3 (OKT3) stimulation on expansion of melanoma tumor-derived cells; format: cell-based, human
Procedure: Cells processed from melanoma tumor fragments as described in Examples 1 and 2, were cultured in the presence or absence of 50 ng/mL OKT3, a human anti-CD3 monoclonal antibody. Cell cultures were carried out to between 14 and 31 days, such as between 14 and 21 days, in either a conventional 6-well plate or a gas permeable culture plate with RPMI or OpTmizer media. […] About 50% of cellular media was exchanged every other day beginning on the 5th day of culture as described previously. Cells were then counted using the NC-200 Automated Cell Counter (Chemometec).

[2] = system: T-cells from three healthy donors; assay: Activation markers on CD4+ and CD8+ T cells after OKT3 activation, flow cytometry; format: cell-based, human; conditions: 50 ng/mL OKT3 vs no OKT3; 3-48 hours
Procedure: Specific markers of activation on the CD4+ and CD8+ cell populations were measured using flow cytometry over a time course of 3-48 hours. Specifically, the following markers were assessed: CD38 and CD39 (FIG. 12A and FIG. 13A), CD134 and CD137 (FIG. 12B and FIG. 13B), and CD69 and CD90 (FIG. 12C and FIG. 13C).

[3] = system: expanded human T cells from three healthy donors; assay: Effect of T cell adjuvants on T cell viability (total viable CD3+ cell count, with and without OKT3); format: cell-based; conditions: 10 μg/mL for antibodies, 25 μM for Z-VAD-FMK; 6 days; irrespective of activation status
Procedure: Cells were expanded from PBMC derived from Ficoll gradient separation from three healthy donor's apheresis material. […] Because the studies were carried out in healthy donors, stimulation of the T cells was carried out with anti-CD3 (OKT3) stimulation in order to mimic conditions present in the tumor microenvironment (TME).
Cells were next seeded into gas permeable 100M culture vessels and expanded for 7-14 days to achieve a large bank of T cells, and cryopreserved. […] Half of wells were additionally supplemented with 50 ng/mL OKT3, a human anti-CD3 monoclonal antibody. In total, 15 test adjuvant agents were tested for their impact on cell viability in the presence and absence of anti-CD3 activation (see Table E3). Cells were cultured for 6 days total, including a 50% medium exchange on culture day 3, and monitored for total viable CD3+ cell count.
Total viable CD3+ cell count for cells grown in the absence and presence of OKT3 stimulation are shown in FIGS. 27A-C and FIGS. 28A-C, respectively. The results shown are for the following concentrations of adjuvant: 10 μg/mL for tested antibodies (Tavolixizumab, Oxelumab, Ipilimumab, Tocilizumab, Urelumab, Pembrolizumab, Varlilumab, anti-GITR MK-1248, anto-human FasL); 25 μM for Z-VAD-FMK pan-caspase inhibitor; 250 nM for HSP inhibitor NVP-HSP990; and 1000 IU/mL for cytokine (IL-7, IL-15, IL-21, IL-23, IL-25, IL-27, or IL-35)).

[4] = system: PBMC from three healthy donors; assay: T cell expansion with FasL blockade or caspase inhibition, anti-CD3 (OKT3) stimulation; format: cell-based, human; conditions: OKT3 activation; agent replenished at each media exchange (continuous); 2 μM Z-VAD-FMK or 500 ng/ml NOK-1
Procedure: Apoptotic inhibitors directed against Fas- and caspase-mediated pathways were assessed to determine effects on tumor reactive T cells during manufacturing. The studies were carried out in healthy donors, and thus, stimulation of the T cells were carried out with anti-CD3 (OKT3) or anti-CD3/anti-CD28 stimulation in order to mimic conditions present in the tumor microenvironment (TME). Constant activation signals present in the tumor microenvironment, as can be stimulated by anti-CD3 or anti-CD3/anti-CD28 activation can be detrimental to T cell growth. Cellular viability and projected cell numbers were used to compare the impact of modulation of apoptotic pathways in both a transient and a continuous activation assay, the latter of which more closely recapitulates the tumor microenvironment.
Cells were then seeded into a 24-well gas permeable cell culture plate at a density of 2.14×10^5 cells/mL (7.5×10^5 cells/cm^2). Cells were activated for 48 hours using 50 ng/ml OKT3, a human anti-CD3 monoclonal antibody, and were additionally treated with agents as described below. […]
Cultures were maintained for at least 13 days with a 50% media exchange every other day beginning on culture day 2. Cell counts and viability were monitored every other day. […]

[5] = system: PBMC from two healthy donors; assay: T cell expansion with FasL blockade or caspase inhibition, anti-CD3/anti-CD28 bead stimulation (transient or continuous activation); format: cell-based, human
Procedure: Cells were then seeded into a 24-well gas permeable cell culture plate at a density of 1.5×10^5 cells/mL (5.0×10^5 cells/cm^2).
Culture wells were assigned to one of two treatment groups, transient or continuous activation. For transient activation, anti-CD3/anti-CD28 paramagnetic beads (Dyanbeads™) were added to the culture media at a ratio of 1 bead per cell starting on culture day 0, and then were removed during media exchange on day 2. For continuous activation, anti-CD3/anti-CD28 paramagnetic beads (Dyanbeads™) were added to the culture media at a ratio of 1 bead per cell starting on culture day 0, and then added again on Day 4, and again on Day 6 at a ratio of 1 bead per cell. The anti-CD3/anti-CD28 paramagnetic beads were not removed on Day 2, 4 or 6.
For both the continuous and transient activation, culture wells were assigned to one of five treatment groups as described above for 10 conditions total per donor.
Cell counts and viability were monitored every other day. When cells reached 3×10^6 cells/ml, 1.5×10^6 cells were sub-cultured into a new well of a 24-well gas permeable culture plate with 7 mL final volume of medium and the culture continued as described above.

[6] = system: CRC tumor fragment or SCS cultures; assay: Caspase inhibition in tumor processing (tumor fragment and SCS cultures); format: cell-based, human; conditions: 2 μM replenished at each media exchange
Procedure: Half of cultures contained media additionally supplemented with 2 μM of pan-caspase inhibitor Z-VAD-FMK which was replenished at each media exchange. Cultures were incubated at about 37° C. for a minimum of 18 days with a 50% medium exchange occurring every 2-3 days following culture day 5. Cell counts were performed on day 5 and at each medium exchange using the NC-200 Automated Cell Counter (ChemoMetec).

[7] = system: expanded human T cells from three healthy donors; assay: Cytokines, modulators and agonist antibodies with IL-2 on T cell number and naive/central memory phenotype; format: cell-based
Procedure: PBMC from three healthy donors were activated, expanded, and cryopreserved as described in Example 11. […] As previously described, stimulation of the healthy donor T cells prior to cryopreservation were carried out with anti-CD3 (OKT3) stimulation in order to mimic conditions present in the tumor microenvironment (TME).
Cells were next seeded into gas permeable 100M culture vessels and expanded for 7-14 days to achieve a large bank of T cells, and cryopreserved.
Cells were maintained in culture for 6 days, with a 50% medium exchange occurring at 3 days post culture initiation.
At the end of the culture period for all culture conditions, cells were assessed for cell count and sub-phenotypes of naïve and central memory T cells by flow cytometry by staining with CD45RA and CCR7 (naïve, CD45RA+ CCR7+; “central” memory, CD45RA− CCR7+).

Compound	total cell number and fold expansion ([1]; 50 ng/mL OKT3 vs no OKT3, with 300 or 6000 IU/mL IL-2, 14-31 days)	fold expansion ([1]; Donor 6, presence or absence of anti-CD3 stimulation, all conditions)	upregulation of activation markers CD38, CD39, CD134, CD137, CD69, CD90 on CD4+ T cells [2]	upregulation of activation markers CD38, CD39, CD134, CD137, CD69, CD90 on CD8+ T cells [2]	viable cell counts versus DMSO treatment control [3]	cell growth (total cell number) [4]	total viable cell number and viability ([5]; agent continuous, listed as caspase inhibitor)	total viable cell number and viability ([5]; agent transient (day 0 only))	cell viability ([6]; SCS culture)	outgrowth of T cells ([6]; SCS culture)	cell viability ([6]; tumor fragment-derived culture)	outgrowth of cells (fold expansion, total viable cells) ([6]; tumor fragment-derived culture)	percent of naïve and central memory T cells compared to IL-2 alone ([7]; 0.2 μg/mL-50 μg/mL, Day 6)	CD3+ cells/mL on Day 6 compared to IL-2 alone ([7]; concentrations higher than 0.2 μg/mL)
OKT3: a human anti-CD3 monoclonal antibody	did not substantially impact; also recorded: largely similar	2-4 fold	all assessed markers were upregulated to some extent	all assessed markers were upregulated to some extent	–	–	–	–	–	–	–	–	–	–
COC(=O)C[C@H](NC(=O)[C@H](C)NC(=O)[C@@H](NC(=O)OCc1ccccc1)C(C)C)C(=O)CF [Z-VAD-FMK, carbobenzoxy-valyl-alanyl-aspartyl-[O-methyl]-fluoromethylketone] (Cbz-Val-Ala-Asp(OMe)-CH2F)	–	–	–	–	consistently higher viable cell counts	greatest cell growth	outperformed the other conditions; also recorded: outperforming the transient condition	outperformed the other conditions	similarly high	not observed	also high	superior	no effect	substantially increased
